Values quoted from earlier work as cited in patent US20220081482A1, “ANTICANCER COMPOSITIONS COMPRISING IMMUNE CHECKPOINT INHIBITORS” (priority 2018, published 2022).

Conditions: orally administered to rats

CN(C)C(=N)N=C(N)N [metformin]
LD50: 1,450 mg/kg
